Source: patent EP2386565A2, “Compounds and methods to inhibit or augment an inflammatory response” (Cambridge Enterprise Ltd., priority 1999, dated 2000)
Positions of bridges follow the written chain, without caps; N, C: chain ends. Non-standard residues stand in square brackets, D forms with d. Residues, ends and D or L forms follow the SMILES beside them.

Legend:
[1] = system: MCP-1 binding to heparin-coated agarose beads; assay: Competition with 125I-MCP-1 for heparin-coated agarose beads; details: 10^-11 to 10^-4 M
Source text: Chemokines bind to glycosaminoglycans on the cell surface, which may facilitate chemokine receptor binding and subsequent signaling. […] This was followed by a monophasic displacement curve at concentrations of approximately 10^-7 to 10^-5 M MCP-1.

[2] = system: T cell-dependent and T cell-independent antibody response; assay: Antibody response after immunization with sheep red blood cells; set-up: species or system mice; details: mouse, in vivo
[3] = system: SDF-1 induced calcium flux; assay: Intracellular calcium flux, SDF-1 as agonist; assay type: cell-based
[4] = biological target: T1, D2s dopamine receptors (Homo sapiens, UniProt P14416); assay: Competition of 3H-spiperone binding to membranes; details: 100 µM highest concentration tested
T1 construct: purchased RBI/Sigma D-179; host or cells: membranes
T1 sequence (P14416 1-414 isoform P14416-2): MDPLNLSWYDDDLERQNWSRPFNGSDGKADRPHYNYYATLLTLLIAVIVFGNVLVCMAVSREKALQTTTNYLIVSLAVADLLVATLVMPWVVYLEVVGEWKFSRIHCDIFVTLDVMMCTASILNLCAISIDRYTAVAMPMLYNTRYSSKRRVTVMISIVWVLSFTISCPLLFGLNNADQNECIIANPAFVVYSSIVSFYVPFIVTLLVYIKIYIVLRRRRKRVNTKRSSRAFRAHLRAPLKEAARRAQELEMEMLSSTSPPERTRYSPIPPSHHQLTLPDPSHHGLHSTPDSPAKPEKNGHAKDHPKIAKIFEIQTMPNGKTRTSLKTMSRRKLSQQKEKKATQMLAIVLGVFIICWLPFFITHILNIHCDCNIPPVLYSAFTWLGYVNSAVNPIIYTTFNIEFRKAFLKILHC
Method: For dopamine receptor binding, membranes (D-179, RBI/Sigma) are diluted into binding buffer (75 mM Tris pH 7.4, 12.5 mM MgCl2 and 2 mM EDTA). For example, 10 µl of membranes are diluted in 500 µl of binding buffer (i.e., 1:50 dilution), which is aliquoted into labelled tubes. Cold competitor or test competitor is added, (e.g., 5 µl of 100x stock solution; 5 µl of 1 mM haloperidol solution (H-100, RBI/Sigma in DMSO). Radioligand is then added (^3H-Spiperone, TRK 818, Amersham, 250 µCi in 250 µl, 10.5 µM at 95 Ci/mmol). For competition studies, 0.5 nM is used. A 100x stock (i.e., 50 nM) is made by diluting the commercial stock 1:210 in binding buffer, and 5 µl is added to every tube. Control tubes have radioligand but no membranes. The mixtures are vortexed, then spun very briefly. The mixtures are then incubated for 1 hour at 27°C in a water bath. The mixture is filtered through GF/C filters over a vacuum. Each filter is pre-soaked in polyethyleneimine (0.3% in water; add 1 ml of 10% stock (P-261; RBI/Sigma) to 33 ml of MilliQ water). The tubes are washed with 2-3 ml of wash buffer (50 mM Tris pH 7.4) and the wash filtered. The filters are then rinsed with 3 × 5 ml of wash buffer, air dried, placed in a scintillation vial and 4.5 ml of scintillant added. The activity on the filter is then determined.

[5] = system: IL8 induced THP-1 migration; assay: THP-1 trans-well migration assay, IL8 as chemoattractant; assay type: cell-based, human
Method: To determine whether an agent inhibits a chemokine-induced activity, such as macrophage recruitment, varying amounts of the agent are mixed with cells in the presence of a known chemoattractant. For example, a range of known concentrations of an agent, e.g., a chemokine peptide, is incubated with a defined number (e.g., 10^4 - […]) of human THP-1 monocyte cells in individual wells of the top compartment of a trans-well plate. Chemokine (such as MCP-1, MIP1α, IL8 or SDF-1α), at a concentration known to cause significant migration of THP-1 cells in the trans-well migration assay, is placed in the lower compartment (Figure 1). […] A standard curve consisting of a two-fold dilution series of THP-1 cells (in 29 µl) is prepared to accurately quantify the number of cells that have migrated. […] Absorbance of converted dye is measured at a wavelength of 595 nm using an ELISA plate reader. The number of migrated cells in each well is then determined by interpolation of the standard curve (see also Imai et al.,J. Biol. Chem., 272, 15036 (1997)). […]
After incubation, the cells were gently removed from the top of the filter with a pipette, 20 µl of 20 mM EDTA in PBS was added into each top well, and the mixture was incubated for 20 minutes at 4°C. […] A standard curve was prepared to accurately quantify the number of THP-1 cells that had migrated. […]

SMILES | displacement of MCP-1 from heparin-coated agarose beads (in words) [1] | T cell-dependent antibody response (in words) [2] | SDF-1 induced calcium flux (in words) [3] | ED50 for competition of spiperone binding to short splice variant D2 dopamine receptor [4] | % inhibition at 100 µM versus IL8 ([5]; THP-1 migration, agent at 100 µM, n.s. or dash = no statistically significant inhibition) | ED50 (µM) versus IL8 ([5]; inhibition of THP-1 migration, n.s. = not statistically significant)
CC[C@@H](C)[C@H]1NC(=O)[C@@H](CCC(N)=O)NC(=O)[C@H](N)CSSC[C@H](C(N)=O)NC(=O)[C@@H](CC(C)C)NC(=O)[C@@H](CC(=O)O)NC(=O)[C@H]2CCCN2C(=O)[C@@H](CCCCN)NC(=O)[C@@H](CCC(N)=O)NC(=O)[C@@H](CCCCN)NC(=O)[C@@H](Cc2c[nH]c3ccccc23)NC1=O (H-[dC][dQ][dI][dW][dK][dQ][dK][dP][dD][dL][dC]-NH2; disulfide 1-11) | did not result in displacement | prevented | did block | >100 µM | – | –
CC[C@H](C)[C@H](NC(=O)[C@H](C)NC(=O)[C@H](CC(=O)O)NC(=O)[C@@H]1CCCN1C(=O)[C@H](CCC(N)=O)NC(=O)[C@H](C)N)C(=O)N[C@@H](CC(N)=O)C(=O)N[C@@H](C)C(=O)N1CCC[C@H]1C(=O)N[C@H](C(=O)N[C@H](C(=O)N[C@@H](CS)C(=O)N[C@@H](CS)C(=O)O)[C@@H](C)O)C(C)C [Peptide 1] (H-AQPDAINAPVTCC-OH; N-terminus and C-terminus assumed) | – | – | – | – | n.s. | n.s.
